This is an account of results in patent publication US8299079B2, “Preparations and methods for ameliorating or reducing presbyopia” (priority 2009, dated 2012).

Test [1] has as its system pupil diameter of patients suffering from presbyopia. The test can be described thus: Preliminary evaluation: pupil diameter after pilocarpine alone or with brimonidine. It counts as in vivo, human. The procedure:
(§1) The effect of pilocarpine alone or in combination with brimonidine on near visual acuity (VA) for patients suffering from presbyopia was evaluated. Initially, 10 patients were selected for preliminary evaluation. Each patient was administered with one drop of a formulation containing 0.25%, 0.5%, or 1.0% pilocarpine with or without one drop of a formulation containing 0.2% brimonidine. Thus, the following six dosages were initially tested: • 1. 0.25% pilocarpine, • 2. 0.5% pilocarpine, • 3. 1.0% pilocarpine, • 4. 0.25% pilocarpine and 0.2% brimonidine, • 5. 0.5% pilocarpine and 0.2% brimonidine, and • 6. 1.0% pilocarpine and 0.2% brimonidine.

In test [2] the test system is near visual acuity (VA) for patients suffering from presbyopia. Description: Preliminary evaluation: near visual acuity after pilocarpine alone or with brimonidine. In kind it is in vivo, human. Here is the method: as §1

Several values for one entry are separate records, joined by “and”; a condition that tells them apart may be missing. Identical values can stand only once.

As for `Brc1c(NC2=NCCN2)ccc2nccnc12` [brimonidine], the “effect on the pupil (potentiation of pilocarpine)” value in test [1] (brimonidine combined with pilocarpine) is reported as “potentiates the effect of pilocarpine on the pupil”.
For `CC[C@@H]1C(=O)OC[C@@H]1Cc1cncn1C` [Pilo Alone, pilocarpine], the “duration of effect on visual acuity (wear out)” value in test [2] (1, 2, 4 hrs after administration) was “appears to wear out fairly quickly”. Besides, the “nVA” value is 3 J and 5 J and 6 J in test [2] (Pilo alone 0.25%, 2 hrs); 3 J and 6 J and 5 J in test [2] (Pilo alone 0.5%, 1 hr); 5 J and 3 J in test [2] (Pilo alone 0.5%, 2 hrs); 5 J and 3 J in test [2] (Pilo alone 0.5%, 4 hrs). Moreover, the Pupil was 3 and 3.5 and 2.5 and 3.3 in test [1] (Pilo alone 0.25%, 1 hr); 4 and 3.5 and 3 in test [1] (Pilo alone 0.25%, 2 hrs); 4 in test [1] (Pilo alone 0.25%, 4 hrs); 2.5 and 3.8 and 3 in test [1] (Pilo alone 0.5%, 1 hr); 3 and 4 and 2.5 and 3.3 in test [1] (Pilo alone 0.5%, 2 hrs); 3.3 and 4 and 3 and 4.2 in test [1] (Pilo alone 0.5%, 4 hrs). For the same molecule, the Pupil in test [1] (Pilo alone 1%, 1 hr) is 2.5 and 1.5 and 3; in test [1] (Pilo alone 1%, 2 hrs), 3 and 1.5 and 2.5; in test [1] (Pilo alone 1%, 4 hrs), 4 and 2.5 and 3.
